According to patent US20240150346A1, “CLASS OF HETEROAROMATIC COMPOUND, PREPARATION METHOD THEREFOR AND USE THEREOF” (INNOVSTONE THERAPEUTICS LIMITED, priority 2021, published 2024):

Target: T1, human-derived receptor TLR7 (Homo sapiens, UniProt Q9NYK1)
T1 construct: host or cells: HEK-Blue hTLR7 cells (HEK293-derived reporter line)
T1 sequence (Q9NYK1 27-1049): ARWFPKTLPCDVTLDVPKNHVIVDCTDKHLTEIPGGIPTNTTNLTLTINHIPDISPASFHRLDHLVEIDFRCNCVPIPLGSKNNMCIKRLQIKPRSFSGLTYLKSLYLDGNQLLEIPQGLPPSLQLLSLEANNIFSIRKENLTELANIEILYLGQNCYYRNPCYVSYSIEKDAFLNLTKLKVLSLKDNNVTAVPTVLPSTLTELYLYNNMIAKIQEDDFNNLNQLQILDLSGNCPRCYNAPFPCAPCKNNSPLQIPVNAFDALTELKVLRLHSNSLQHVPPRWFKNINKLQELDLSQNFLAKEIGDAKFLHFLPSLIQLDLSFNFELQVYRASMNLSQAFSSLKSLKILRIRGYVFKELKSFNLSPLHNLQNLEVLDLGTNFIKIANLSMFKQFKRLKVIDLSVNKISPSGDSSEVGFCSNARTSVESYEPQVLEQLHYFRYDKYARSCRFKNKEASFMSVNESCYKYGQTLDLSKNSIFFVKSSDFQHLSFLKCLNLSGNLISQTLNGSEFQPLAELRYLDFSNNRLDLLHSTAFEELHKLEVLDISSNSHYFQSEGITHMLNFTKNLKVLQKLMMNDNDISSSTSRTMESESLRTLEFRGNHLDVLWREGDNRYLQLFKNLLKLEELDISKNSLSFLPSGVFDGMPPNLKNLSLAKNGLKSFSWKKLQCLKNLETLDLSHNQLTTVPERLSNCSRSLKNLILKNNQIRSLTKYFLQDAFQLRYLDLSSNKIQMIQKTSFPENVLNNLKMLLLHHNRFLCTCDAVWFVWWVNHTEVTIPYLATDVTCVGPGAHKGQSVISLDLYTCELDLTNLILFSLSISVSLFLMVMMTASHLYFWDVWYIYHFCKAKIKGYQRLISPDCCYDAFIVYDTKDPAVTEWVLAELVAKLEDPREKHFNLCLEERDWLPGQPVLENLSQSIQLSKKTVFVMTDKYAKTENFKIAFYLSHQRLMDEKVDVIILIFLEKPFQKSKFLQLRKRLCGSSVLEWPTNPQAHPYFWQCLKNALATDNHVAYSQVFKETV
Experiment: Assay on agonistic activity for human-derived receptor TLR7 (HEK-Blue hTLR7 cells, HEK-Blue Detection Medium)
Assay type: cell-based
Conditions: 16 h incubation, absorbance at 655 nm, read-out: EC50
Protocol: HEK-Blue™ hTLR7 cells (InvivoGen, hkb-htlr7) were cultured in a DMEM complete medium (Gibco, 12100) containing 10% FBS (Invitrogen, 10099141), 1% P/S (Invitrogen, 15140122), 10 μg/mL Blasticidin (InvivoGen, ant-bl-1), 100 μg/mL Zeocin (InvivoGen, ant-zn-1), and 100 μg/mL Normocin (InvivoGen, ant-nr-1). The cells were cultured in an incubator at 37° C. with 5% CO2. When HEK-Blue™ hTLR7 cells reached a growth density of 70%-80%, cell passage was needed.
The agonistic activity for the human-derived receptor TLR7 by HEK-Blue™ hTLR7 cells was assayed by HEK-Blue™ Detection Medium (InvivoGen, hd-det2). First, a bag of HEK-Blue™ Detection Medium powder was dissolved in 50 mL of ultra-pure sterile water for complete dissolution, and then the dissolved medium was filtered into a new 50 mL centrifuge tube through a 0.22 μm filter. Finally, antibiotics were added into the filtered detection medium until the final concentration was 1% for P/S and 100 μg/mL for Normocin. HEK-Blue™ Detection Medium was pre-heated to 37° C. in advance on the day of the assay on the activity for the TLR7 receptor, and the temperature was always maintained at 37° C.
The compound powder was dissolved in 100% DMSO (Sigma, D2650-100ML) to obtain a 10 mM stock solution, and the compound was completely dissolved by shaking with an oscillator. The stock solution of the compound was subjected to a 5-fold dilution to 2 mM with 100% DMSO. This was followed by a 3-fold serial dilution for a total of 8 concentration gradients. Then, each of the concentration gradients was subjected to a 20-fold dilution to 100 μM, 33.3 μM, 11.1 μM, 3.7 μM, 1.23 μM, […], 0.114 μM, and 0.05 μM using HEK-Blue™ Detection Medium. 20 μL of each of the dilutions was added to a 96-well cell culture plate (Corning, 3599).
On the day of the assay on the agonistic activity for the human-detived receptor TLR7, HEK-Blue™ hTLR7 cells has a growth density of 70%-80%, and the cell medium was removed. 1 mL of cell dissociation buffer (Gibco, 13151-014) was added to each 100 mm cell culture dish, and the cells were incubated in an incubator at 37° C. for 5 min. The cells were pipetted using a DMEM cell medium to obtain a single cell suspension, which was then centrifuged at 1000 rpm for 10 min to collect the cell pellet. The cell pellet was resuspended with HEK-Blue™ Detection Medium pre heated to 37° C. The cells were counted and diluted to 220,000 cells/mL. Finally, 180 μL of cell suspension (40,000 cells/well) was added to each well of the 96-well cell culture plate to which the compound had been added, and the cell suspension was mixed with the compound using a pipettor. Final concentrations of the compound were 10 μM, 3.3 μM, 1.1 μM, 0.37 μM, 0.12 μM, 0.04 μM, 0.01 μM, and 0.005 μM. After incubation in an incubator at 37° C. for 16 h, the absorbance was read at 655 nm using an M5e microplate reader (MD, USA).
The EC50 of the compound was calculated using the software GraphPad Prism (GraphPad Software, USA). The background reading of the detection culture was subtracted from the absorbance readings at 655 nm of all wells of the 96-well plate, the ratio of each well to the negative control well (the well without the compound) was calculated, and then the percentage of the ratio of each well to the positive control well (the well treated with 10 μM positive compound), i.e., the percentage of activity, was calculated. Finally, the sigmoidal dose-response (variable slope) curve between the percentage of activity and the concentration of the compound was calculated using the software GraphPad Prism to calculate the EC50 of the compound. […]

| EC50 [µM] | Structure (SMILES) |
| --- | --- |
| 0.05 to 0.1 | C=CCSc1nc2c(N)nc3ccccc3c2n1Cc1ccc(CN2CC[C@H](F)C2)cc1 [Example 210] |
| < 0.05 | CCSc1nc2c(N)nc3ccccc3c2n1Cc1ccc(CN2CCCC2)cc1 [Example 156] |
| 0.05 to 0.1 | CCCCOc1nc(N)c2c(n1)CN(Cc1ccc(CN3CCCC3)c(C)c1)C(=O)N2 [Example 66] |
| < 0.05 | CSc1nc2c(N)nc3ccccc3c2n1Cc1ccc(N2CCN(C)CC2)cc1 [Example 212] |
| < 0.05 | Nc1nc2ccccc2c2c1[nH]c(=S)n2Cc1ccc(CN2CCCC2)cc1 [Example 155, 4-amino-1-(4-(pyrrolidin-1-ylmethyl)benzyl)-1,3-dihydro-2H-imidazo[4,5-c]quinoline-2-thione] |
| 0.05 to 0.1 | CSc1nc2c(N)nc3ccccc3c2n1Cc1ccc(CNC(C)C)cc1 [Example 188] |
| 0.05 to 0.1 | C=CCSc1nc2c(N)nc3ccccc3c2n1Cc1ccc(CN2CC[C@@H](F)C2)cc1 [Example 211] |
| 0.05 to 0.1 | CCSc1nc2c(N)nc3ccccc3c2n1Cc1ccc(CN2CCNCC2)cc1 [Example 214] |
| < 0.05 | CCCSc1nc2c(N)nc3ccccc3c2n1Cc1ccc(CN2CCCC2)cc1 [Example 159] |
| 0.05 to 0.1 | COc1cc(CN2CC[C@H](O)C2)ccc1Cn1c(SC)nc2c(N)nc3ccccc3c21 [Example 245] |
| 0.05 to 0.1 | COc1cc(CN2C[C@H]3CN(C)C[C@H]3C2)ccc1Cn1c(SC)nc2c(N)nc3ccccc3c21 [Example 239] |
| < 0.05 | COCSc1nc2c(N)nc3ccccc3c2n1Cc1ccc(CN2CCCC2)cc1 [Example 157] |
| 0.05 to 0.1 | COc1cc(CN2CCNCC2)ccc1Cn1c(SC)nc2c(N)nc3ccccc3c21 [Example 238] |
| 0.05 to 0.1 | N#CCCSc1nc2c(N)nc3ccccc3c2n1Cc1ccc(CN2CCCC2)cc1 [Example 177] |
| < 0.05 | CCSc1nc2c(N)nc3ccccc3c2n1Cc1ccc(CNC(C)C)cc1 [Example 191] |
| 0.05 to 0.1 | Nc1nc2ccccc2c2c1nc(SCCF)n2Cc1ccc(CN2CCCC2)cc1 [Example 178] |
| < 0.05 | COc1cc(CN2CCCC2)ccc1Cn1c(SC)nc2c(N)nc3ccccc3c21 [Example 233] |
| < 0.05 | C=CCSc1nc2c(N)nc3ccccc3c2n1Cc1ccc(CN2CCNCC2)cc1 [Example 215] |
| 0.05 to 0.1 | COc1cc(C2CCN(C)CC2)ccc1Cn1c(SC)nc2c(N)nc3ccccc3c21 [Example 246] |

| EC50 [µM] | Structure (SMILES) |
| --- | --- |
| 0.05 to 0.1 | C=CCCSc1nc2c(N)nc3ccccc3c2n1Cc1ccc(CN2CCCC2)cc1 [Example 165] |
| 0.05 to 0.1 | COc1cc(CN2CC(O)C2)ccc1Cn1c(SC)nc2c(N)nc3ccccc3c21 [Example 244] |
| 0.05 to 0.1 | CSc1nc2c(N)nc3ccccc3c2n1Cc1ccc(CN2CC(O)C2)cc1 [Example 206] |
| 0.05 to 0.1 | COc1cc(CN2CCN(C)CC2)ccc1Cn1c(SC)nc2c(N)nc3ccccc3c21 [Example 247] |
| < 0.05 | CCCCOc1nc(N)c2[nH]c(=O)n(Cc3ccc(CN4CCNCC4)s3)c2n1 [Example 46] |
| 0.05 to 0.1 | CSc1nc2c(N)nc3ccccc3c2n1Cc1ccc(CN2CCNCC2)cc1 [Example 213] |
| 0.05 to 0.1 | CCSc1nc2c(N)nc3ccccc3c2n1Cc1ccc(CN(C)C)cc1 [Example 190] |
| 0.05 to 0.1 | CCN(CC)Cc1ccc(Cn2c(=O)[nH]c3c(N)nc4ccccc4c32)cc1C [Example 113] |
| < 0.05 | Nc1nc2ccccc2c2c1nc(SCC1CC1)n2Cc1ccc(CN2CCCC2)cc1 [Example 163] |
| 0.05 to 0.1 | CCSc1nc2c(N)nc3ccccc3c2n1Cc1ccc(CN2CC(O)C2)cc1 [Example 207] |
| < 0.05 | CCCCOc1nc(N)c2[nH]c(=O)n(Cc3ccc(CN4CCN(C(=O)CO)CC4)s3)c2n1 [Example 47] |
| < 0.05 | CCCCOc1nc(N)c2c(n1)CN(Cc1ccc(C)c(CN3CCCC3)c1)C(=O)N2 [Example 78] |
| 0.05 to 0.1 | COc1cc(OCCN(C)C)ccc1Cn1c(SC)nc2c(N)nc3ccccc3c21 [Example 248] |
| 0.05 to 0.1 | COc1cc(CNC(C)C)ccc1Cn1c(SC)nc2c(N)nc3ccccc3c21 [Example 241] |
| < 0.05 | C=CCSc1nc2c(N)nc3ccccc3c2n1Cc1ccc(CN2CCCC2)cc1 [Example 166] |
| 0.05 to 0.1 | CSc1nc2c(N)nc3ccccc3c2n1Cc1ccc(CN(C)C)cc1 [Example 189] |
| 0.05 to 0.1 | CCSc1nc2c(N)nc3ccccc3c2n1Cc1ccc(CN2CC[C@H](O)C2)cc1 [Example 209] |
| < 0.05 | CCCCOc1nc(N)c2[nH]c(=O)n(Cc3ccc(CN4CCN(C(=O)COC)CC4)s3)c2n1 [Example 48] |

| Structure (SMILES) | EC50 [µM] |
| --- | --- |
| CCCCOc1nc(N)c2c(n1)N(Cc1ccc(Oc3ccc(CNC)cc3)cc1)CC(=O)N2 [Example 252, 4-amino-2-butoxy-8-(4-(4-((methylamino)methyl)phenoxy)benzyl)-7,8-dihydropteridin-6(5H)-one] | < 0.05 |
| CCCCOc1nc(N)c2[nH]c(=O)n(Cc3ccc(CN4CCC(N)C4)s3)c2n1 (stereo not drawn) [Example 49, 6-amino-9-((5-((3-aminopyrrolidin-1-yl)methyl)thien-2-yl)methyl)-2-butoxy-7,9-dihydro-8H-purin-8-one] | < 0.05 |
| CCCCOc1nc(N)c2c(n1)CN(Cc1ccc(C(=O)N3CCCC3)cc1)C(=O)N2 [Example 50, 8-amino-6-butoxy-3-(4-(pyrrolidin-1-ylcarbonyl)benzyl)-3,4-dihydropyrimido[5,4-d]pyrimidin-2(1H)-one] | < 0.05 |
| CCCCOc1nc(N)c2[nH]c(=O)n(Cc3ccc(CN4CCN(C(=O)CN)CC4)s3)c2n1 [Example 45, 6-amino-2-butoxy-9-((5-((4-glycylpiperazin-1-yl)methyl)thien-2-yl)methyl)-7,9-dihydro-8H-purin-8-one] | < 0.05 |
| CCCCOc1nc(N)c2[nH]c(=O)n(Cc3cccc(CN4CCCC4=O)c3)c2n1 [Example 42, 6-amino-2-butoxy-9-(3-((2-oxopyrrolidin-1-yl)methyl)benzyl)-7,9-dihydro-8H-purin-8-one] | < 0.05 |
